Data published in article PMC9024338, “Bruceine H Mediates EGFR-TKI Drug Persistence in NSCLC by Notch3-Dependent β-Catenin Activating FOXO3a Signaling” (Frontiers in Oncology, 2022).

How the values were obtained:
[1] = test system: A549 xenografts; test: A549 xenografts in BALB/c nude mice; type: in vivo
Procedure: The total proteins of cells and tissues were extracted with RIPA cleavage buffer containing a protease inhibitor cocktail, phenylmethylsulfonyl fluoride (PMSF, Solarbio). The cell lysates (20 μg) were run on SDS-polyacrylamide gel (6%–10%) and transferred to the polyvinylidene fluoride membrane (PVDF, Millipore, MA, USA) by electrophoresis. The membrane was blocked with 5% skim milk in TBST for 2 h, incubated overnight with the corresponding primary antibody at 4°C, and then incubated with the corresponding secondary antibody at room temperature for 2 h. The reaction products were detected by chemiluminescence by ECL Western Blotting Detection System. Finally, quantitative analysis was carried out with ImageJ software.
The heart, liver, spleen, lung, kidney, and tumor tissues were embedded in paraffin, and the sections (4 µm) were stained with hematoxylin–eosin (H&E, Solarbio) and then examined and analyzed under a Leica DM6B microscope (Leica Microsystems, Wetzlar, Germany).
The tumor section was dewaxed and repaired with antigen, 3% H2O2 was added, and then the section was sealed with 10% goat serum at room temperature for 30 min. The first antibody against Ki-67 and Notch3 (CST) was incubated overnight at 4°C, and the second antibody was incubated at room temperature for 30 min. After DAB staining, the sections were counterstained with hematoxylin for 2 min and then observed and analyzed under a Leica microscope.
The animal procedures were approved by the Ethics Committee of the Experimental Animal Center of Jiangxi University of Chinese Medicine (Nanchang, China, SCXK 2016-0006) and conducted following the Guide for the Care and Use of Laboratory Animals. Four-week-old male BALB/c nude mice (weighing 16–17 g, SPF grade) were obtained from Shanghai Shrek Experimental Animal Co., Ltd. (Shanghai, China). The xenotransplantation model was established by subcutaneous injection of A549 or PC-9/GR cells in nude mice, which were collected with PBS and mixed with an equal volume of Matrigel at a final concentration of 1 × 10^7/ml. […] Measurements of tumor size and body weight were conducted every 2 days with a vernier caliper and an electronic balance. Nodule growth was quantified by using the following formula: tumor volume (mm^3) = (short-diameter)^2 × large-diameter × π/6.

[2] = test system: 16HBE cells; test: Toxicity to normal human cell line 16HBE (Figure S1); type: cell-based
Procedure: Figure S1. The toxicity of Bruceine H (BH) and Bruceine D (BD) to 16HBE (A) and LO2 (B) cells was evaluated.

[3] = test system: PC-9/GR cells; test: Apoptosis by flow cytometry (Annexin V-FITC/PI), PC-9/GR; type: cell-based, human; details: low-dose BH (4, 8 μM), gefitinib 25 μM, alone or combined
Procedure: After being digested with trypsin without EDTA, the cells were washed gently with culture medium and twice with cold PBS. The pellet was resuspended in 400 μl of 1× binding buffer, the resuspended cells were transferred to flow tubes, then Annexin V-FITC (5 μl) and propidium iodide (10 μl) were added, and the mixture was incubated for 15 min at room temperature in the dark. The percentage of apoptotic cells was determined by flow cytometry (Backman, CA, USA) and FlowJo V10 software.

In the case of CC1=CC(=O)[C@@H](O)[C@]2(C)[C@H]3[C@@H](O)[C@H](O)[C@@]4(CO)OC[C@@]35[C@@H](C[C@@H]12)OC(=O)[C@H](O)[C@]54O [BH, Bruceine H], the “growth of A549 xenografts” value ([1]; 2.5 or 5 mg/kg intragastric, 16 days) is reported as “significantly inhibited”, the “organ indexes of heart, kidney, liver, lung, spleen” value ([1]; A549 xenograft mice) is reported as “no significant changes” and the body weight ([1]; A549 xenograft mice, 2.5 and 5 mg/kg) is reported as “without significant changes”. The “Notch3 expression in tumor xenografts” value ([1]; A549 xenografts, IHC, vs model group) was “decreased in a dose-dependent manner”, the “number of Ki-67-positive cells in cancer tissues” value ([1]; A549 xenografts, IHC, vs vehicle) was “decreased” and the “Notch3, β-catenin, and Bcl-2 protein levels in tumor tissues” value ([1]; A549 xenografts, Western blot) was “decreased”. For the same molecule, the “expression of FOXO3a in tumor tissues” value ([1]; A549 xenografts, Western blot) was “increased”, the “toxicity to 16HBE cells” value [2] was “no apparent toxicity” and the “apoptosis of PC-9/GR cells” value [3] was “little effects”.
